Data on 21 compounds can be found in patent publication US12084444B2, “Spiro-lactam NMDA modulators and methods of using same” (Tenacia Biotechnology (Hong Kong) Co., Limited, priority 2016, dated 2024).

Holding throughout (assay type): biochemical
In assay [1] the target is T1, NMDAR2B expressing HEK cell membranes (Homo sapiens, UniProt Q13224).
T1 construct: expressed in transfected cells; host or cells: HEK cells (membrane extract)
The assay can be described thus: NMDAR agonist assay, [3H]MK-801 binding, NMDAR2B. As to conditions: 50 μM glutamate; for EC50: read-out: NMDAR2B B: log EC50 (converted). Set-up: key to NMDAR2B B: log EC50: 0=−; ≥1×10^−9 M (e.g., −8)=+; <1×10^−9 M (e.g., −10)=++. The protocol:
(§1) Assays were conducted as described by Moskal et al., “GLYX-13: a monoclonal antibody-derived peptide that acts as an N-methyl-D-aspartate receptor modulator,” Neuropharmacology, 49, 1077-87, 2005. These studies were designed to determine if the test compounds act to facilitate NMDAR activation in NMDAR2A, NMDAR2B, NMDAR2C or NMDAR2D expressing HEK cell membranes as measured by increases in [^3H]MK-801 binding.
(§2) In the assay, 300 μg of NMDAR expressing HEK cell membrane extract protein was preincubated for 15 minutes at 25° C. in the presence of saturating concentrations of glutamate (50 μM) and varying concentrations of test compound (1×10^−15 M-1×10^−7 M), or 1 mM glycine. Following the addition of 0.3 μCi of [^3H]MK-801 (22.5 Ci/mmol), reactions were again incubated for 15 minutes at 25° C. (nonequilibrium conditions). Bound and free [^3H]MK-801 were separated via rapid filtration using a Brandel apparatus.
(§3) In analyzing the data, the DPM (disintegrations per minute) of [^3H]MK-801 remaining on the filter were measured for each concentration of test compound or for 1 mM glycine. The DPM values for each concentration of a ligand (N=2) were averaged. The baseline value was determined from the best fit curve of the DPM values modeled using the GraphPad program and the log(agonist) vs. response(three parameters) algorithm was then subtracted from all points in the dataset. The % maximal [^3H]MK-801 binding was then calculated relative to that of 1 mM glycine: all baseline subtracted DPM values were divided by the average value for 1 mM glycine. The EC50 and % maximal activity were then obtained from the best fit curve of the % maximal [^3H]MK-801 binding data modelled using the GraphPad program and the log(agonist) vs. response(three parameters) algorithm.
(§4) The tables below summarize the results for the wild type NMDAR agonists NMDAR2A, NMDAR2B, NMDAR2C, and NMDAR2D, and whether the compound is not an agonist (−), is an agonist (+), or is a strong agonist (++), where column A is based on the % maximal [^3H]MK-801 binding relative to 1 mM glycine (−=0; <100%=+; and >100%=++); and column B is based on log EC50 values (0=−; ≥1×10^−9 M (e.g., −8)=+; and <1×10^−9 M (e.g., −10)=++).

Assay [2] deals with T2, NMDAR2A expressing HEK cell membranes (Homo sapiens, UniProt Q12879).
T2 construct: expressed in transfected cells; host or cells: HEK cells (membrane extract)
T2 sequence (Q12879 23-1464, other chains not shown): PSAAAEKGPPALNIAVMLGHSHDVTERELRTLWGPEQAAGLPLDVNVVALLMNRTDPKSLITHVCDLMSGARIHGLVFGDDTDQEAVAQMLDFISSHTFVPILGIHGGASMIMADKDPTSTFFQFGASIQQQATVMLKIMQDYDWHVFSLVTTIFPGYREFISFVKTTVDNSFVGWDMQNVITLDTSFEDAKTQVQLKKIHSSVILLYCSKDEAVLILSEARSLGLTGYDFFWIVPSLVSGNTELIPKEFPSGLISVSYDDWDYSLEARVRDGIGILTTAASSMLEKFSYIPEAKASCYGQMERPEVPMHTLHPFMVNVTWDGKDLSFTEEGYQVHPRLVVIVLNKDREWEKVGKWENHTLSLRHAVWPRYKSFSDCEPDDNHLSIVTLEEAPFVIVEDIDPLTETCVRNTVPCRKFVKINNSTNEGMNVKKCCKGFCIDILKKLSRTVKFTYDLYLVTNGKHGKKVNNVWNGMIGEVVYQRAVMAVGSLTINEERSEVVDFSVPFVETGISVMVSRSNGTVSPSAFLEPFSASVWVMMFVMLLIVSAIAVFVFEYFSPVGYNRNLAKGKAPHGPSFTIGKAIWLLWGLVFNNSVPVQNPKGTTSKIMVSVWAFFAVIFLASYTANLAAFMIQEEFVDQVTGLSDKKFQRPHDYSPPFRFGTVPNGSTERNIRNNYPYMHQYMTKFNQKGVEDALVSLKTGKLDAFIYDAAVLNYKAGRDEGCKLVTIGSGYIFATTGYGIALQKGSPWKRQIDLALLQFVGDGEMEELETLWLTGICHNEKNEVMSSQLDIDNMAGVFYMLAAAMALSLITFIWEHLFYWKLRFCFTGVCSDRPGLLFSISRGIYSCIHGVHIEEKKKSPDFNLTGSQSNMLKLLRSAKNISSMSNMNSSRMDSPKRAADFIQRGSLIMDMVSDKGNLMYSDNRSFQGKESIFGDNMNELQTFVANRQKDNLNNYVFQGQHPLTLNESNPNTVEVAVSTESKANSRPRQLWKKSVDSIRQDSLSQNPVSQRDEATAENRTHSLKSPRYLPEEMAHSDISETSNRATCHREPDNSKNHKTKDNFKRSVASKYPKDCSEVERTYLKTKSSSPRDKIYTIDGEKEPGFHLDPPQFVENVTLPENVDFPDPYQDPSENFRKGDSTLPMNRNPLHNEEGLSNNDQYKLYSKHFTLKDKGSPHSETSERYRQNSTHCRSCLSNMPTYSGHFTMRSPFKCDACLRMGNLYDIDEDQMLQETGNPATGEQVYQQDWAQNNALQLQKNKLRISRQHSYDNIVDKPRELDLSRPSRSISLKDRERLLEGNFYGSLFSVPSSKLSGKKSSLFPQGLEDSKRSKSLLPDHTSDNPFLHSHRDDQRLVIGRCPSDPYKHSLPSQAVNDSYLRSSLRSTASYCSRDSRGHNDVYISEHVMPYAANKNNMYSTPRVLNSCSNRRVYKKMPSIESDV
The experiment in a line: NMDAR agonist assay, [3H]MK-801 binding, NMDAR2A. The settings on record: 50 μM glutamate; for EC50: read-out: NMDAR2A B: log EC50 (converted). Also on record: key to NMDAR2A B: log EC50: 0=−; ≥1×10^−9 M (e.g., −8)=+; <1×10^−9 M (e.g., −10)=++. The protocol: as §1, §2, §3, §4

In assay [3] the target is T3, NMDAR2B expressing HEK cell membranes (Homo sapiens, UniProt Q05586+Q13224).
T3 construct: expressed in transfected cells; host or cells: HEK cells (membrane extract)
T3 sequence (Q13224 27-1484, other chains not shown): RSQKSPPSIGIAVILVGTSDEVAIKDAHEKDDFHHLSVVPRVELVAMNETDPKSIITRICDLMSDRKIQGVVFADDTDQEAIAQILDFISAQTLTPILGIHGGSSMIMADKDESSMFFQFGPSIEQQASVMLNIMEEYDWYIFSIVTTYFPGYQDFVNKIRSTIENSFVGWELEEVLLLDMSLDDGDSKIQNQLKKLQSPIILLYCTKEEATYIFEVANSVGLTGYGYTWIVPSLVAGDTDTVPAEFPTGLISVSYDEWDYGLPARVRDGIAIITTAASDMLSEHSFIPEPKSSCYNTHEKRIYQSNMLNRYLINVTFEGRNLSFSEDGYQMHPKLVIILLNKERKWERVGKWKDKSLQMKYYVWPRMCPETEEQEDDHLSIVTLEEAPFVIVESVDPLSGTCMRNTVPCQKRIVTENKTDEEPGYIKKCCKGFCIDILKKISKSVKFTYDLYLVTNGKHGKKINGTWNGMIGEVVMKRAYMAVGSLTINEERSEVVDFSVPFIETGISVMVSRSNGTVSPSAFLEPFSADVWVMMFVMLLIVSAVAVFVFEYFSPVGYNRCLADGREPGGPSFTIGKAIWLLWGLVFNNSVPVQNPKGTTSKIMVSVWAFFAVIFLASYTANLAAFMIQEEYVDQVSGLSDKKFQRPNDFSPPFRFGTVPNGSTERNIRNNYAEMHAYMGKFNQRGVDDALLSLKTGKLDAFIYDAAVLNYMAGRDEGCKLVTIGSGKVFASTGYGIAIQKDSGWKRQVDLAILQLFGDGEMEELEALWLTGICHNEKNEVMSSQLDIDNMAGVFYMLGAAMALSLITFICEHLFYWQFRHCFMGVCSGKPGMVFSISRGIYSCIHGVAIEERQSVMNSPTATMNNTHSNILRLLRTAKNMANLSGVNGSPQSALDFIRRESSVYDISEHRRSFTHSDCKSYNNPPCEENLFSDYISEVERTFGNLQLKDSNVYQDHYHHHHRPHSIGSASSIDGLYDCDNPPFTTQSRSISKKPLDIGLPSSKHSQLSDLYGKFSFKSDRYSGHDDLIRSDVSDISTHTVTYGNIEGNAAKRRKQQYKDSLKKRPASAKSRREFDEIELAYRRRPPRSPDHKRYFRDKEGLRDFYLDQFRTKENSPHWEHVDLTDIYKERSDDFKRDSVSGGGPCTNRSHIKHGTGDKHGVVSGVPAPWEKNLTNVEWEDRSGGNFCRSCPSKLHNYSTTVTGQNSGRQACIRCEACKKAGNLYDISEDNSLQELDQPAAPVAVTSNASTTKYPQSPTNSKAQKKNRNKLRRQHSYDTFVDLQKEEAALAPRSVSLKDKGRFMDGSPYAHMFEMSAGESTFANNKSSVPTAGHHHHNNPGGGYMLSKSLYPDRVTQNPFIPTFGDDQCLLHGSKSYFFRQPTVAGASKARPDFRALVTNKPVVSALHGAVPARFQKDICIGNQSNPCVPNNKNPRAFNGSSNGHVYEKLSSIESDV
The experiment in a line: NMDAR agonist assay, [3H]MK-801 binding, NMDAR2B. Also on record: key to NMDAR2B B: log EC50: 0=−; ≥1×10^−9 M (e.g., −8)=+; <1×10^−9 M (e.g., −10)=++. The settings on record: 50 μM glutamate; for EC50: read-out: NMDAR2B B: log EC50 (converted); for Emax: 0.25 h, read-out: NMDAR2B A: % maximal [3H]MK-801 binding relative to 1 mM glycine. Here is the method: as §1, §2, §3, §4

Assay [4] has as its target T4, NMDAR2A expressing HEK cell membranes (Homo sapiens, UniProt Q05586+Q12879).
T4 construct: expressed in transfected cells; host or cells: HEK cells (membrane extract)
The assay can be described thus: NMDAR agonist assay, [3H]MK-801 binding, NMDAR2A. The settings on record: 50 μM glutamate; for Emax: 0.25 h, read-out: NMDAR2A A: % maximal [3H]MK-801 binding relative to 1 mM glycine; for EC50: read-out: NMDAR2A B: log EC50 (converted). Also on record: key to NMDAR2A B: log EC50: 0=−; ≥1×10^−9 M (e.g., −8)=+; <1×10^−9 M (e.g., −10)=++. Here is the method:
as §1, §2, §3, §4

Structures are written as SMILES. Where only a bound is given, the exact number is not on record here.

T4 sequence (Q12879 23-1464, other chains not shown): as the sequence (Q12879 23-1464, other chains not shown) above

For `CN1CCC2(CC1=O)CN(Cc1ccccc1)C2=O` (single isomer, unassigned) [CX, 2-benzyl-7-methyl-2,7-diazaspiro[3.5]nonane-1,6-dione], in assay [1], the “NMDAR2B A: % maximal [3H]MK-801 binding relative to 1 mM glycine” value was “+ (<100%=+)” and the half-maximal effective concentration (EC50) was below 1 nM. In assay [2], the “NMDAR2A A: % maximal [3H]MK-801 binding relative to 1 mM glycine” value is reported as “+ (<100%=+)” and the concentration giving a half-maximal response (EC50) was below 1 nM.

Regarding `CC1CC(=O)N(c2ccc(F)cc2)C12CN(Cc1ccccc1)C2=O` (single isomer, unassigned) [BX, 2-benzyl-5-(4-fluorophenyl)-8-methyl-2,5-diazaspiro[3.4]octane-1,6-dione], in assay [3], the EC50 was below 1 nM and the Emax was below 100%. The Emax in assay [4] stood at 0%. Also, the “NMDAR2A B: log EC50” value in assay [2] is given as “−”.

In the case of `CC1C(O)C(=O)N(C)C12CN(Cc1ccccc1)C2=O` (single isomer, unassigned) [DM, 2-benzyl-7-hydroxy-5,8-dimethyl-2,5-diazaspiro[3.4]octane-1,6-dione], the values for the Emax in assay [3] and in assay [4] were 0% and below 100%, respectively. The “NMDAR2B B: log EC50” value in assay [1] is recorded as “−”. Further, the EC50 in assay [4] is at least 1 nM.

In the case of `NC(=O)CN1CC2(CCNC(=O)C2)C1=O` (single isomer, unassigned) [DC, 2-(1,6-dioxo-2,7-diazaspiro[3.5]nonan-2-yl)acetamide], in assay [3], the EC50 is below 1 nM and the Emax is below 100%. Moreover, the EC50 in assay [4] is below 1 nM. For the same compound, the “NMDAR2A A: % maximal [3H]MK-801 binding relative to 1 mM glycine” value in assay [2] was “+ (<100%=+)”.

As to `CN1CC2(CCNC(=O)C2)C1=O` (single isomer, unassigned) [DG, 2-methyl-2,7-diazaspiro[3.5]nonane-1,6-dione], in assay [1], the “NMDAR2B A: % maximal [3H]MK-801 binding relative to 1 mM glycine” value was “− (−=0)” and the “NMDAR2B B: log EC50” value was “−”. In addition, in assay [4], the EC50 was below 1 nM and the Emax was below 100%.

As to `CC(C)CN1CC2(CCNC(=O)C2)C1=O` (single isomer, unassigned) [DE, 2-isobutyl-2,7-diazaspiro[3.5]nonane-1,6-dione], in assay [3], the EC50 is below 1 nM and the Emax was below 100%. In assay [4], the half-maximal effective concentration (EC50) is below 1 nM and the Emax is below 100%.

With `CNC(=O)[C@H]([C@@H](C)O)N1CC2(CCNC(=O)C2)C1=O` (single isomer, unassigned) [DB], in assay [3], the EC50 was below 1 nM. Also, the Emax in assay [3] was above 100%; in assay [4], 0%. For the same compound, the “NMDAR2A B: log EC50” value in assay [2] is “−”.

Consider `CC1CC(=O)N(c2ccc(F)cc2)C12CN([C@H](C(N)=O)[C@@H](C)O)C2=O` (single isomer, unassigned) [DK], for which, in assay [3], the Emax amounted to 0%. In assay [1], the “NMDAR2B B: log EC50” value is recorded as “−”. Further, in assay [4], the EC50 is at least 1 nM and the Emax is above 100%.

Take `CC1C(O)C(=O)N(C)C12CN(Cc1ccccc1)C2=O` (single isomer, unassigned) [DN, 2-benzyl-7-hydroxy-5,8-dimethyl-2,5-diazaspiro[3.4]octane-1,6-dione]: the “NMDAR2B B: log EC50” value in assay [1] is on record as “−”. Besides, the EC50 in assay [4] is below 1 nM.

In the case of `COc1ccc(CN2CC3(CCN(CC(C)C)C(=O)C3)C2=O)cc1` (single isomer, unassigned) [CS, 7-isobutyl-2-(4-methoxybenzyl)-2,7-diazaspiro[3.5]nonane-1,6-dione], the EC50 in assay [3] is below 1 nM. In addition, in assay [1], the “NMDAR2B A: % maximal [3H]MK-801 binding relative to 1 mM glycine” value is given as “++ (>100%=++)”. In addition, in assay [4], the concentration giving a half-maximal response (EC50) was below 1 nM and the Emax was below 100%.

For `COc1ccc(CN2CC3(CCNC(=S)C3)C2=O)cc1` (single isomer, unassigned) [CN, 2-(4-methoxybenzyl)-6-thioxo-2,7-diazaspiro[3.5]nonan-1-one], in assay [3], the concentration for a half-maximal effect (EC50) is below 1 nM and the Emax is below 100%. In assay [4], the EC50 was below 1 nM and the Emax is below 100%.

On to `COc1ccc(CN2CC3(CCN(C)C(=O)C3)C2=O)cc1` (single isomer, unassigned) [CJ, 2-(4-methoxybenzyl)-7-methyl-2,7-diazaspiro[3.5]nonane-1,6-dione], for which, in assay [1], the “NMDAR2B A: % maximal [3H]MK-801 binding relative to 1 mM glycine” value was “++ (>100%=++)” and the EC50 is below 1 nM. For the same compound, in assay [2], the “NMDAR2A A: % maximal [3H]MK-801 binding relative to 1 mM glycine” value is “+ (<100%=+)” and the EC50 is below 1 nM.

Consider `CCN1CCC2(CC1=O)CN(Cc1ccccc1)C2=O` (single isomer, unassigned) [CZ, 2-benzyl-7-ethyl-2,7-diazaspiro[3.5]nonane-1,6-dione], for which the “NMDAR2B B: log EC50” value in assay [1] is on record as “−”. The half-maximal effective concentration (EC50) in assay [4] was at least 1 nM.

Take `CC1C(N)C(=O)N(C)C12CN(Cc1ccccc1)C2=O` (single isomer, unassigned) [CG, 7-amino-2-benzyl-5,8-dimethyl-2,5-diazaspiro[3.4]octane-1,6-dione]: in assay [3], the half-maximal effective concentration (EC50) is below 1 nM. Further, the results for the Emax in assay [3] and in assay [4] were below 100% and 0%, respectively. Further, the “NMDAR2A B: log EC50” value in assay [2] is “−”.

On to `CC1CC(=O)N(c2ccc(F)cc2)C12CN(CC(N)=O)C2=O` (single isomer, unassigned) [CF, 2-(5-(4-fluorophenyl)-8-methyl-1,6-dioxo-2,5-diazaspiro[3.4]octan-2-yl)acetamide], for which, in assay [3], the EC50 is below 1 nM and the Emax is below 100%. Also, the Emax in assay [4] was 0%. Also, the “NMDAR2A B: log EC50” value in assay [2] is “−”.

`CN1CCC2(CC1=O)CN(Cc1ccccc1)C2=O` (single isomer, unassigned) [CW, 2-benzyl-7-methyl-2,7-diazaspiro[3.5]nonane-1,6-dione]: in assay [3], the EC50 was below 1 nM and the Emax was above 100%. Moreover, in assay [4], the EC50 is below 1 nM and the Emax is below 100%.

In the case of `CC1CC(=O)N(C)C12CN(CC(N)=O)C2=O` (single isomer, unassigned) [DI, 2-(5,8-dimethyl-1,6-dioxo-2,5-diazaspiro[3.4]octan-2-yl)acetamide], in assay [3], the concentration for a half-maximal effect (EC50) was below 1 nM and the Emax is below 100%. The EC50 in assay [4] is below 1 nM. The “NMDAR2A A: % maximal [3H]MK-801 binding relative to 1 mM glycine” value in assay [2] is “+ (<100%=+)”.

`COc1ccc(CN2CC3(CCNC(=S)C3)C2=S)cc1` (single isomer, unassigned) [CO, 2-(4-methoxybenzyl)-2,7-diazaspiro[3.5]nonane-1,6-dithione]: in assay [1], the “NMDAR2B A: % maximal [3H]MK-801 binding relative to 1 mM glycine” value is “− (−=0)” and the “NMDAR2B B: log EC50” value is given as “−”. Further, in assay [4], the concentration for a half-maximal effect (EC50) was below 1 nM and the Emax was below 100%.

Take `NC(=O)CN1CC2(CCNC(=O)C2)C1=O` (single isomer, unassigned) [DD, 2-(1,6-dioxo-2,7-diazaspiro[3.5]nonan-2-yl)acetamide]: in assay [1], the “NMDAR2B A: % maximal [3H]MK-801 binding relative to 1 mM glycine” value is recorded as “+ (<100%=+)” and the EC50 was below 1 nM. Further, in assay [2], the “NMDAR2A A: % maximal [3H]MK-801 binding relative to 1 mM glycine” value is given as “− (−=0)” and the “NMDAR2A B: log EC50” value is “−”.

As to `O=C1CC2(CCN1)CN(Cc1ccccc1)C2=O` (single isomer, unassigned) [CU, 2-benzyl-2,7-diazaspiro[3.5]nonane-1,6-dione], in assay [3], the concentration for a half-maximal effect (EC50) is below 1 nM and the Emax was below 100%. Also, in assay [2], the “NMDAR2A A: % maximal [3H]MK-801 binding relative to 1 mM glycine” value is “− (−=0)” and the “NMDAR2A B: log EC50” value is “−”.

In the case of `CCN1CCC2(CC1=O)CN(Cc1ccccc1)C2=O` (single isomer, unassigned) [CY, 2-benzyl-7-ethyl-2,7-diazaspiro[3.5]nonane-1,6-dione], in assay [3], the Emax came to 0%. In addition, in assay [1], the “NMDAR2B B: log EC50” value is “−”. In assay [4], the concentration giving a half-maximal response (EC50) is below 1 nM and the Emax is below 100%.
